What follows are compounds tested on PAF-induced hypotension in rats (assay: Reversal of PAF-induced hypotension in the rat). Details: iv, anaesthetised male Sprague-Dawley rats, PAF 100 ng.kg^-1 min^-1 i.v. infusion, compound i.v. bolus, read-out: ED50, dose to cause a 50% reversal of the hypotensive PAF response.
Format: in vivo
Protocol: Compounds of general formula I inhibit PAF-induced functions in both the cellular and tissue levels by changing the PAF binding to its specific receptor site. The ability of compounds of general formula I to inhibit the binding of PAF to its specific receptor binding site on human platelet plasma membranes was measured according to Pharmacological Example 1. The ability of compounds of general formula I to reverse the hypotension caused by an infusion of PAF in rats was measured according to Pharmacology Example 2. […] Male Sprague-Dawley rats (300-350 gms) were anaesthetised with a mixture of sodium pentobarbitone, 22.5 mg.kg^-1 and thiopental 62.5 mg.kg^-1. Through a midline incision in the neck, the trachea was cannulated and the animals breathed spontaneously. A carotid artery was cannulated for the measurement of blood pressure and this signal was used to trigger a rate meter to measure heart rate. Both jugular veins were cannulated: one for the infusion of PAF and the other for the bolus administration of test compounds.

SMILES | ED50
COc1ccc(C2CCC3(O2)C(=O)C(=Cc2cccnc2)CC3c2ccc(OC)c(OC)c2)cc1OC (stereo not drawn) [Example 2, 1-Oxa-6-oxo-7-(3-pyridyl)methylene-2,9-di(3,4-dimethoxyphenyl)spiro[4,4]nonane] | 0.8 mg/kg

What follows are compounds tested against T1, PAF receptor (^3 H-PAF binding to human platelet plasma membrane) (Homo sapiens, UniProt P25105) (assay: Inhibition of ^3H-PAF binding to human platelet plasma membrane (isotopic labelling and filtration)). Details: human platelet membranes, 0.5 nM ^3H-PAF, 1 hour, 0° C.
T1 construct: from tissue; host or cells: human platelets (concentrates from a hospital blood bank), lysed by freeze-thaw, membrane fraction
T1 sequence (P25105 whole entry): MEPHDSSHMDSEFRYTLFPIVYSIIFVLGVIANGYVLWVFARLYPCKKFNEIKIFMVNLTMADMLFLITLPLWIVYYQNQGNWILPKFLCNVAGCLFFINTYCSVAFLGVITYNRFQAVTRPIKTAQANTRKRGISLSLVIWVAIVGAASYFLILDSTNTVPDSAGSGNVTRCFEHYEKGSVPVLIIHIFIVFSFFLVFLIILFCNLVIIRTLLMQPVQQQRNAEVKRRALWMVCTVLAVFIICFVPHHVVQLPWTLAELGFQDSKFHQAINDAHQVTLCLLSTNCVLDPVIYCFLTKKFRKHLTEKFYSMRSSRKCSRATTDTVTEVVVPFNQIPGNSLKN

SMILES | IC50
COc1ccc(C2CCC3(O2)C(=O)CCC3c2ccc(OC)cc2)cc1 (stereo not drawn) [Example 18, 1-Oxa-6-oxo-2,9-di(4-methoxyphenyl)spiro[4,4]nonane] | 5 µM
COc1ccc(C2CCC3(O2)C(=O)C(=Cc2cccnc2)CC3c2ccc(OC)cc2)cc1 (stereo not drawn) [Example 19, 1-Oxa-6-oxo-7-(3-pyridyl)methylene-2,9-di(4-methoxyphenyl)spiro[4,4]nonane] | 9 µM
COc1ccc(C2CCC3(O2)C(=O)C(=CCCCCc2cccnc2)CC3c2ccc(OC)c(OC)c2)cc1OC (stereo not drawn) [Example 11, 1-Oxa-6-oxo-7-(3-pyridylbutyl)methylene-2,9-di(3,4-dimethoxyphenyl)spiro[4,4]nonane] | 1 µM
COc1ccc(C2CCC3(O2)C(=O)CCC3c2ccc(OC)c(OC)c2)cc1OC (single isomer, unassigned) [Example 1A, 1-oxa-6-oxo-2,9-(3,4-dimethoxyphenyl)spiro[4,4]nonane] | 12 µM
COc1ccc(C2CCC3(O2)C(=CC#N)CCC3c2ccc(OC)c(OC)c2)cc1OC (stereo not drawn) [Example 17, 1-Oxa-6-cyanomethylene-2,9-di(3,4-dimethoxyphenyl)spiro[4,4]nonane] | 1.5 µM

Second part, the compound after the results:

IC50 | SMILES
3 µM | COc1ccc(C2CCC3(O2)C(=O)C(=Cc2cccnc2)CC3c2ccc(OC)c(OC)c2)cc1OC (stereo not drawn) [Example 2, 1-Oxa-6-oxo-7-(3-pyridyl)methylene-2,9-di(3,4-dimethoxyphenyl)spiro[4,4]nonane]
1.5 µM | COc1ccc(C2CCC3(O2)C(=O)C(=CCCc2cccnc2)CC3c2ccc(OC)c(OC)c2)cc1OC (stereo not drawn) [Example 10, 1-Oxa-6-oxo-7-(3-pyridylethyl)methylene-2,9-di(3,4-dimethoxyphenyl)spiro[4,4]nonane]
5 µM | COc1ccc(C2CCC3(O2)C(=O)C(=Cc2cccc(Cl)c2)CC3c2ccc(OC)c(OC)c2)cc1OC (stereo not drawn) [Example 5, 1-Oxa-6-oxo-7-(3-chlorophenyl)methylene-2,9-di(3,4-dimethoxyphenyl)spiro[4,4]nonane]

Reference: patent US5300524A, “Spirocyclic PAF antagonists” (British Bio-Technology Limited, priority 1991, dated 1994)
